Source: US4198504A, “[3-(Pyridinium)-7-(naphthyiridinyl carbonylamino)acetamido]cephalosporanic acid derivatives” (Bristol-Myers Company, priority 1978, dated 1980)
Like-named read-outs stand apart in the source and are kept apart here.

Key:
[1] = test system: Escherichia coli Juhl; assay: In vivo efficacy, experimental infection in mice, intramuscular treatment, Escherichia coli Juhl; parameters: species or system Escherichia coli (infected mice); settings: im, 120 h, read-out: PD50 Escherichia coli Juhl
Description: (§1) The in vivo efficacy was evaluated by intramuscular treatment against three kinds of experimental infection in mice.
(§2) The in vivo tests were carried out using the following three pathogenic organisms:
(§3) Mice were challenged intraperitoneally with approximately a 100×LD50 dose of the pathogens in a 5% mucin suspension. The mice were treated with test compound by I.M. route immediately after the bacterial challenge.

[2] = Antibiotic blood levels in mice following intramuscular administration (paper disc-agar diffusion, Escherichia coli NIHJ as assay organism); type: in vivo; settings: mouse, im, I.M., 20 mg./kg.; for half-life: read-out: Blood level, Half-life; for Cmax: read-out: Blood level, Peak Concentration
Description: Antibiotic blood levels were determined in mice following intramuscular administration of the test compounds at 20 mg./kg. The blood samples were collected from the orbital sinuses into heparinized capillary tubes at 15, 30, 60 and 120 minutes after administration. The antibiotic concentration was determined by the paper disc-agar diffusion method using Escherichia coli NIHJ as the assay organism.

[3] = test system: Ps. aeruginosa; assay: In vitro MIC, serial two-fold agar dilution, primary evaluation Ps (6 strains); type: cell-based; settings: CBPC = 100%, geometric mean of MICs
Description: (§4) Minimun inhibitory concentrations (MIC) were determined by the serial two-fold agar dilution method using Steers' apparatus on Mueller-Hinton agar plate against 31 test organisms for the primary screening and also against 64 strains of Pseudomonas aeruginosa for the secondary evaluation. The results are shown in Table 1 in terms of relative activity with respect to the standard compound CBPC (carbenicillin) which was set at 100%. In each group the calculation was based on the geometric mean of the observed MICs.
Ps. = Ps. aeruginosa (6).

[4] = test system: Pseudomonas aeruginosa; assay: In vitro MIC, serial two-fold agar dilution, secondary evaluation against Pseudomonas aeruginosa strains; type: cell-based; settings: CBPC = 100%, geometric mean of MICs
Description: as §4

[5] = test system: E. coli (9), Klebsiella sp. (2), Pr. mirabilis (1), Sal. enteritidis (1); assay: In vitro MIC, serial two-fold agar dilution, primary evaluation Gn-I (E. coli, Klebsiella sp., Pr. mirabilis, Sal. enteritidis); type: cell-based; settings: CBPC = 100%, geometric mean of MICs
Description: as §4
GnI = E. coli (9), Klebsiella sp. (2), Pr. mirabilis (1), Sal.

[6] = test system: Staphylococcus aureus Smith; assay: In vivo efficacy, experimental infection in mice, intramuscular treatment, Staphylococcus aureus Smith; parameters: species or system Staphylococcus aureus (infected mice); settings: im, 120 h, read-out: PD50 Staphylococcus aureus Smith
Description: as §1, §2
Staphylococcus aureus Smith
as §3

[7] = test system: S. aureus; assay: In vitro MIC, serial two-fold agar dilution, primary evaluation Gp (S. aureus, 6 strains); type: cell-based; settings: CBPC = 100%, geometric mean of MICs
Description: as §4
*GP = S. aureus (6 strains);

[8] = test system: Pseudomonas aeruginosa A9843; assay: In vivo efficacy, experimental infection in mice, intramuscular treatment, Pseudomonas aeruginosa A9843; parameters: species or system Pseudomonas aeruginosa (infected mice); settings: A9843, im, 120 h, read-out: PD50 Pseudomonas aeruginosa A9843
Description: as §1, §2
Pseudomonas aeruginosa A9843
as §3

[9] = test system: Ent. cloacae (3), Pr. vulgaris (1), Pr. morganii (1), S. marcescen (1); assay: In vitro MIC, serial two-fold agar dilution, primary evaluation Gn-II (Ent. cloacae, Pr. vulgaris, Pr. morganii, S. marcescens); type: cell-based; settings: CBPC = 100%, geometric mean of MICs
Description: as §4
GnII = Ent. cloacae (3), Pr. vulgaris (1), Pr. morganii (1), S. marcescen

[10] = I.M., 100×LD50 challenge i.p., 5 days

SMILES	ED50 [1, 10]	half-life [2]	Cmax [2]	In vitro relative activity, primary evaluation Ps (6) ([3]; Mueller-Hinton agar)	In vitro relative activity, secondary, Pseudomonas aeruginosa (61-64) ([4]; 61-64 strains)	In vitro relative activity, primary evaluation Gn-I (13) ([5]; Mueller-Hinton agar)	ED50 [6, 10]	In vitro relative activity, primary evaluation Gp (6) ([7]; Mueller-Hinton agar)	ED50 [8, 10]	In vitro relative activity, primary evaluation Gn-II (6) ([9]; Mueller-Hinton agar)	ED50 ([1]; Lot 2, I.M.)	In vitro relative activity, primary evaluation Ps (6) ([3]; Lot 2)	In vitro relative activity, secondary, Pseudomonas aeruginosa (61-64) ([4]; Lot 2)	In vitro relative activity, primary evaluation Gn-I (13) ([5]; Lot 2)	ED50 ([6]; Lot 2, I.M.)	In vitro relative activity, primary evaluation Gp (6) ([7]; Lot 2)	ED50 ([8]; Lot 2, I.M.)	In vitro relative activity, primary evaluation Gn-II (6) ([9]; Lot 2)
O=C([O-])C1=C(C[n+]2cccc(C(=O)O)c2)CSC2C(NC(=O)[C@H](NC(=O)c3cnc4cccnc4c3O)c3ccc(O)cc3)C(=O)N12 (some centres unmarked) [BB-S579]	1.8 mg/kg	75 min	12000 ng/mL	2880%	2780%	230%	2 mg/kg	28%	6.4 mg/kg	22%	–	–	–	–	–	–	–	–
O=C(O)Cc1ccc[n+](CC2=C(C(=O)[O-])N3C(=O)C(NC(=O)[C@H](NC(=O)c4cnc5cccnc5c4O)c4ccc(O)cc4)C3SC2)c1 (stereo partly drawn) [BB-S580, 7-[D-α-(4-Hydroxy-1,5-naphthyridine-3-carboxamido)-α-(4-hydroxyphenyl)acetamido]-3-(3-carboxymethylpyridinium)methyl-3-cephem-4-carboxylate]	1.2 mg/kg	33 min	16500 ng/mL	2490%	1780%	359%	2.6 mg/kg	27%	6.4 mg/kg	33%	–	–	–	–	–	–	–	–
O=C([O-])C1=C(C[n+]2ccc(C(=O)O)cc2)CSC2C(NC(=O)[C@H](NC(=O)c3cnc4cccnc4c3O)c3ccc(O)cc3)C(=O)N12 (stereo partly drawn) [BB-S584, 7-[D-α-(4-Hydroxy-1,5-naphthyridine-3-carboxamido)-α-(4-hydroxyphenyl)acetamido]-3-(4-carboxypyridinium)methyl-3-cephem-4-carboxylate]	4.2 mg/kg	81 min	12500 ng/mL	725%	1180%	166%	7.6 mg/kg	22%	36 mg/kg	14%	–	–	–	–	–	–	–	–
O=C([O-])C1=C(C[n+]2ccccc2C(=O)O)CSC2C(NC(=O)[C@H](NC(=O)c3cnc4cccnc4c3O)c3ccc(O)cc3)C(=O)N12 (stereo partly drawn) [BB-S585, 7-[D-α-(4-Hydroxy-1,5-naphthyridine-3-carboxamido)-α-(4-hydroxyphenyl)acetamido]-3-(2-carboxypyridinium)methyl-3-cephem-4-carboxylate]	7.4 mg/kg	60 min	5800 ng/mL	297%	466%	53%	10 mg/kg	20%	86 mg/kg	4%	–	–	–	–	–	–	–	–
O=C([O-])C1=C(C[n+]2cccc(S(=O)(=O)O)c2)CSC2C(NC(=O)[C@H](NC(=O)c3cnc4cccnc4c3O)c3ccc(O)cc3)C(=O)N12 (stereo partly drawn) [BB-S587, 7-[D-α-(4-Hydroxy-1,5-naphthyridine-3-carboxamido)-α-(4-hydroxyphenyl)acetamido]-3-(3-sulfopyridinium)methyl-3-cephem-4-carboxylate]	–	40 min	3000 ng/mL	2378%	3380%	166%	–	28%	3.13 mg/kg	16%	2.4 mg/kg	3200%	3570%	87%	3.7 mg/kg	56%	2.2 mg/kg	19%
O=C([O-])C1=C(C[n+]2ccc(CCS(=O)(=O)O)cc2)CSC2C(NC(=O)[C@H](NC(=O)c3cnc4cccnc4c3O)c3ccc(O)cc3)C(=O)N12 (stereo partly drawn) [BB-S588, 7-[D-α-(4-Hydroxy-1,5-naphthyridine-3-carboxamido)-α-(4-hydroxyphenyl)acetamido]-3-(4-sulfoethylpyridinium)methyl-3-cephem-4-carboxylate]	1.56 mg/kg	59 min	4400 ng/mL	1767%	2030%	350%	5 mg/kg	45%	6.8 mg/kg	45%	–	–	–	–	–	–	–	–
O=C(O)C=Cc1ccc[n+](CC2=C(C(=O)[O-])N3C(=O)C(NC(=O)[C@H](NC(=O)c4cnc5cccnc5c4O)c4ccc(O)cc4)C3SC2)c1 (stereo partly drawn) [BB-S589, 7-[D-α-(4-Hydroxy-1,5-naphthyridine-3-carboxamido)-α-(4-hydroxyphenyl)acetamido]-3-[3-(2-carboxyvinyl)pyridinium]methyl-3-cephem-4-carboxylate]	–	60 min	7000 ng/mL	1449%	1880%	146%	–	56%	4 mg/kg	14%	1.9 mg/kg	2900%	2970%	107%	3.7 mg/kg	45%	3.2 mg/kg	44%
O=C(O)Cc1cc[n+](CC2=C(C(=O)[O-])N3C(=O)C(NC(=O)[C@H](NC(=O)c4cnc5cccnc5c4O)c4ccc(O)cc4)C3SC2)cc1 (stereo partly drawn) [BB-S591, 7-[D-α-(4-Hydroxy-1,5-naphthyridine-3-carboxamido)-α-(4-hydroxyphenyl)acetamido]-3-(4-carboxymethylpyridinium)methyl-3-cephem-4-carboxylate]	6.25 mg/kg	54 min	11000 ng/mL	883%	1160%	167%	6.15 mg/kg	31%	12.5 mg/kg	18%	–	–	–	–	–	–	–	–
O=C([O-])C1=C(C[n+]2cccc(S(=O)(=O)O)c2)CSC2C(NC(=O)[C@H](NC(=O)c3cnc4cccnc4c3O)c3ccccc3)C(=O)N12 (stereo partly drawn) [BB-S607, 7-[D-α-(4-Hydroxy-1,5-naphthyridine-3-carboxamido)-α-phenylacetamido]-3-(3-sulfopyridinium)methyl-3-cephem-4-carboxylate]	–	60 min	10000 ng/mL	883%	695%	24%	4.5 mg/kg	35%	23 mg/kg	13%	–	–	–	–	–	–	–	–
O=C(O)CSc1cc[n+](CC2=C(C(=O)[O-])N3C(=O)C(NC(=O)[C@H](NC(=O)c4cnc5cccnc5c4O)c4ccc(O)c(Cl)c4)C3SC2)cc1 (stereo partly drawn) [BB-S621, 7-[D-α-(4-Hydroxy-1,5-naphthyridine-3-carboxamido)-α-(3-chloro-4-hydroxyphenyl)acetamido]-3-[4-(carboxymethylthio)-pyridinium]methyl-3-cephem-4-carboxylate]	2.4 mg/kg	54 min	10000 ng/mL	800%	1400%	121%	–	20%	4.6 mg/kg	18%	–	–	–	–	–	–	–	–
